Tests used:
estradiol receptor = target: T1, estradiol receptor (Oryctolagus cuniculus, UniProt G1SML6); test: Bonding affinity to the estradiol receptor (displacement of (^3 H) estradiol, rabbit uterus cytosol); format: binding, rabbit (New Zealand); conditions: uterus cytosol of female prepubertal rabbits; 18 hours at 40° C.; 2.5×10^-9 M (^3 H) estradiol; read-out: ED50 (concentration of substance displacing 50% (^3 H) estradiol from the estradiol receptor)
T1 construct: The uterus cytosal of female, prepubertal, white rabbits (New Zealand); from tissue; host or cells: uterus cytosol of female prepubertal New Zealand white rabbits
T1 sequence (G1SML6 1-598): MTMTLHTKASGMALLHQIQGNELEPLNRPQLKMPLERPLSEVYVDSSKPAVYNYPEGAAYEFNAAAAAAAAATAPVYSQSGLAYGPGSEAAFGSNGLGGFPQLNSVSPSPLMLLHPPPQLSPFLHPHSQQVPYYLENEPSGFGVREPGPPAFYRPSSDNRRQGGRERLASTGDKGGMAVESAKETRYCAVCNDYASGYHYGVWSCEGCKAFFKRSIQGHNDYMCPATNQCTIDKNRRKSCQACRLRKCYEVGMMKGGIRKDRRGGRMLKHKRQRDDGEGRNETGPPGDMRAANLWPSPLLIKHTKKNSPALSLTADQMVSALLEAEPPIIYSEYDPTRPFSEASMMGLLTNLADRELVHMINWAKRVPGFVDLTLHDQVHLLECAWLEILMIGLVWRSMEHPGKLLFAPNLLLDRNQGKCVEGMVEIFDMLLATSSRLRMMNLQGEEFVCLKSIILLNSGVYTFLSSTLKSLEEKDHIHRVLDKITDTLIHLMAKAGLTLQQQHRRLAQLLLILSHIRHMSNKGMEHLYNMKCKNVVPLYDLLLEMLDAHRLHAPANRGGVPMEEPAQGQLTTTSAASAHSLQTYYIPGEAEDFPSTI
Excerpt: The determination of the binding affinity to the estradiol receptor was effected by means of the rabbit uterus cytosol.
The measurement of the bonding affinity to the estradiol receptor was affected by the method of N. Devleeschouwer, G. Leclercq, A. Danguy and J. C.

[1] = test system: mammatumors induced by 7,12-dimethylbenz(a)anthracene; test: Mammatumor inhibiting effect (7,12-dimethylbenz(a)anthracene-induced mammatumors); format: in vivo, rat (female Spraque-Dawley, Hannover strain); conditions: 3 mg/kg/day, esophageal tube, 28 days, six times per week; 10 animals; control animals valued at 100%
Description: The tumor inhibiting action was measured following a four-week treatment with the active ingredient on female rats, with mammatumors induced previously with 7,12-dimethylbenz(a)anthracene.
The tumor inhibiting effect was determined on the model of mammatumors induced by means of 7,12-dimethylbenz(a)anthracene of female Spraque-Dawley rats (Hannover strain), by the method of M. J. Golder (Europ. J. Cancer 11, 571 (1975)) and D. P. Griswold et al. (Cancer Research 26, 2169 (1966)).
The test substance were taken up in a 0.25% agar solution and administered by esophageal tube over a period of 28 days, six times per week. Twice weekly and on the 28th day of the experiment, the number of animals was ascertained and the tumor surface (mm^2 /animal) of the therapy and control animals measured. At the completion of the experiment, the percentage increase of the average tumor surface of the treated animals was determined, compared with the control animals, which were valued at 100%.

uterus = test: Antiuterotropic effect (modified Dorfman test, uterus weight); format: in vivo, rat (Spraque-Dawley, sexually mature female); conditions: 3 mg/kg/day, esophageal tube, 21 days, six times per week; 10 animals
Description: The measurement of the antiuterotropic action was effected following a three-week treatment with the active ingredient of sexually mature, female rats. […] The antiuterotropic effect was determined by a modified Dorfman test (R. I. Dorfman, "Methods in Hormone Research II" p. 707, Academic Press, New York-London, 1962), on sexually mature female Spraque-Dawley rats. The test compounds were taken up in a 0.25% aqueous agar suspension and administered by esophageal tube over a period of 21 days, six times per week. Following the completion of the experiment, the uterus weight of animals treated with the active ingredient was related to the uterus weight of the control animals, which received only an empty agar suspension.

SMILES | IC50 (estradiol receptor) | Relative increase of average tumor surface [1] | Weight of uterus compared to control animals (uterus)
CC[C@H](c1ccccc1)[C@@H](C(=O)c1ccc(OCCN(C)C)cc1)c1ccccc1 (relative stereo) [Compound 1, erythro-1-(4'-(2-dimethylaminoethoxy)-phenyl)-2,3-diphenyl-1-pentanone] | 6000 nM | 53% | 
CC[C@H](c1ccccc1)[C@@H](C(=O)c1ccc(OCCN2CCCCC2)cc1)c1ccccc1 (relative stereo) [Compound 4, erythro-2,3-diphenyl-1-(4'-(2-piperidin-1-yl-ethoxy)-phenyl)-1-pentanone] | 2800 nM |  | -28%
CC[C@H](c1ccccc1)[C@@H](C(=O)c1ccc(OCCN(CC)CC)cc1)c1ccccc1 (relative stereo) [Compound 2, erythro-1-(4'-(2-diethylaminoethoxy)-phenyl)-2,3-diphenyl-1-pentanone] | 4000 nM |  | -54%
CC[C@H](c1ccccc1)[C@@H](C(=O)c1ccc(OCCN(C)C)cc1)c1ccc(OC)cc1 (relative stereo) [Compound 5, erythro-1-(4'-(2-dimethylaminoethoxy)-phenyl)-2-(4'-methoxyphenyl)-3-phenyl-1-pentanone] | 4500 nM |  | -47%
CC[C@H](c1ccccc1)[C@@H](C(=O)c1ccc(OCCN(C)C)cc1)c1ccc(O)cc1 (relative stereo) [Compound 9, erythro-1-(4'-(2-dimethylaminoethoxy)-phenyl)-2-(4'-hydroxyphenyl)-3-phenyl-1-pentanone] | 5.4 nM | 30% | -54%
CC[C@H](c1ccccc1)[C@@H](C(=O)c1ccc(OCCN(CC)CC)cc1)c1ccc(OC)cc1 (relative stereo) [Compound 6, erythro-1-(4'-(2-diethylaminoethoxy)-phenyl)-2-(4'-methoxyphenyl)-3-phenyl-1-pentanone] | 500 nM |  | 
CC[C@H](c1ccccc1)[C@@H](C(=O)c1ccc(OCCN2CCCC2)cc1)c1ccccc1 (relative stereo) [Compound 3, erythro-2,3-diphenyl-1-(4'-(2-pyrrolidin-1-yl-ethoxy)-phenyl)-1-pentanone] | 6000 nM |  | -36%

Second part, led by results:

IC50 (estradiol receptor) | SMILES | Relative increase of average tumor surface [1] | Weight of uterus compared to control animals (uterus)
80 nM | CC[C@H](c1ccccc1)[C@@H](C(=O)c1ccc(OCCN2CCCC2)cc1)c1ccc(O)cc1 (relative stereo) [Compound 10, erythro-2-(4'-hydroxyphenyl)-3-phenyl-1-(4'-(2-pyrrolidin-1-yl-ethoxy)-phenyl)-1-pentanone] |  | 
1100 nM | CC[C@H](c1ccccc1)[C@@H](C(=O)c1ccc(OCCN2CCCC2)cc1)c1ccc(OC)cc1 (relative stereo) [Compound 7, erythro-2-(4'-methoxyphenyl)-3-phenyl-1-(4'-(2-pyrrolidin-1-yl-ethoxy)-phenyl)-1-pentanone] |  | -43%
1.2 nM | CC[C@H](c1ccccc1)[C@@H](C(=O)c1ccc(OCCN2CCCCC2)cc1)c1ccc(OC)cc1 (relative stereo) [Compound 8, erythro-2-(4'-methoxyphenyl)-3-phenyl-1-(4'-(2-piperidin-1-yl-ethoxy)-phenyl)-1-pentanone] |  | 
